According to PubChem BioAssay (NCI):
Where “and” joins values, the source holds several entries; their conditions need not be identical. Identical values can stand only once.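 All cell lines were grown in 96-well plates and treated with compound for 48 hours. The concentration for 50% growth inhibition is given as GI50. TGI: concentration producing complete growth inhibition.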 Starred links: 1 amine or outer side, 2 acyl side, 3 side chain; linkers in the order of their positions; H or OH if unused. Positions of bridges follow the written chain, without caps; N, C: chain ends. Non-standard residues stand in square brackets, D forms with d. Residues, ends and D or L forms follow the SMILES beside them. Chains are numbered I, II in the order given. Actinocin(9to1) = Cc1c2oc3c(C)ccc(C(=O)[*:1])c3nc-2c(C(=O)[*:2])c(N)c1=O; NMeY = CN[CH](Cc1ccc(O)cc1)C(=O)O; Sar = CNCC(=O)O

Columns and labels:
Assay in all cases: DTP human tumour cell line panel, 48 h
[1] = system: A498 renal
[2] = system: EKVX NSCLC
[3] = system: UACC-62 melanoma
[4] = system: SW-620 colon
[5] = system: U251 CNS
[6] = system: MDA-N
[7] = system: HCT-15 colon
[8] = system: T-47D breast

Row | SMILES | TGI [1] | TGI [2] [µM] | TGI [3] | TGI [4] [µM] | TGI [5] [µM] | TGI [6] | TGI [7] [µM] | TGI [8] [µM] | GI50 [8] | GI50 [2] | GI50 [3] | GI50 [6] | GI50 [7]
1 | COc1cc(OC)c2nc(C)c(CCCl)c(Cl)c2c1 | > 100 µM | > 100 | > 100 µM | > 100 | > 100 | > 100 µM | > 100 | – | – | – | – | – | –
2 | COc1cccc(C2c3cc4c(cc3OC(N3CCCCC3)C2C)OCO4)c1O (stereo unspecified) | – | 56.8 | 28.2 µM | > 87.8 | 16.2 | 7.71 µM | 19.9 | 80 | – | – | – | – | –
3 | Cc1c2oc3c(C)ccc(C(=O)NC4C(=O)NC(C(C)C)C(=O)N5CCCC5C(=O)N(C)CC(=O)N(C)C(Cc5ccc(O)cc5)C(=O)OC4C)c3nc-2c(C(=O)NC2C(=O)NC(C(C)C)C(=O)N3CCCC3C(=O)N(C)CC(=O)N(C)C(Cc3ccc(O)cc3)C(=O)OC2C)c(N)c1=O (stereo unspecified) (I: TVP[Sar][NMeY] / II: TVP[Sar][NMeY]; ester I:1-I:C, II:1-II:C; linker I:N-II:N via Actinocin(9to1); configuration not given here) | 0.664 µM and 0.11 µM | > 1 | 0.157 µM and 0.0213 µM | > 1 | > 1 | > 0.48 µM and 0.259 µM | > 1 | > 0.334 | 0.0103 µM and 0.00457 µM | 0.231 µM and 0.102 µM | 0.0235 µM and 0.0057 µM | 0.0273 µM and 0.00511 µM | 0.988 µM and 0.116 µM
4 | Cc1ccc(C2SCC(=O)N2c2ccc(-n3c(-c4ccccc4)nc4ccccc4c3=O)cc2)cc1 (stereo unspecified) | 90.3 µM | – | 51.5 µM | > 100 | 35 | 80 µM | 52 | 67.3 | – | – | – | – | –
5 | O=C(N/N=C(\c1ccccc1)c1ccccn1)NC1CCCCC1 | – | > 100 | > 100 µM | > 100 | > 100 | > 100 µM | > 100 | > 100 | – | – | – | – | –
6 | COc1cccc(C(=O)Oc2ccc(OS(=O)(=O)c3ccc(C)cc3)cc2)c1C#N | – | > 100 | > 100 µM | > 100 | > 100 | > 100 µM | > 100 | 71.7 | – | – | – | – | –
7 | CC1CC(OP(=O)(OCc2ccccc2)OCc2ccccc2)[C@@H](OCc2ccccc2)C(OCc2ccccc2)C1OCc1ccccc1 (stereo partly specified) | – | > 100 | > 100 µM | > 100 | > 100 | > 100 µM | > 100 | > 100 | – | – | – | – | –
8 | CO/N=C(\C)c1ccc(Nc2nc3ccccc3c3occc23)cc1 | 29.7 µM | 27.5 | 24.7 µM | – | 35.6 | 28.7 µM | 30.5 | 28.9 | – | – | – | – | –
9 | O=c1oc2ccccc2cc1-c1cc2ccccn2c1 | > 100 µM | > 100 | > 100 µM | > 100 | > 100 | > 100 µM | > 100 | – | – | – | – | – | –
10 | Cc1ccc(/C=N/Nc2cc(C)c3cccc(C)c3n2)s1 | – | 38.2 | 43.6 µM | > 100 | > 100 | 25.1 µM | 17.4 | > 100 | – | – | – | – | –
11 | CCCC(=O)NC(NC1CCCCC1)(C(=O)OCC)C(F)(F)F (stereo unspecified) | – | > 100 | – | > 100 | > 100 | > 100 µM | > 100 | > 100 | – | – | – | – | –
12 | CC(C)(C)OC(=O)N(CCCCN(CCCNC(=O)C(F)(F)F)C(=O)OC(C)(C)C)CCCNC(=O)C(F)(F)F | > 100 µM | > 100 | > 100 µM | > 100 | > 100 | – | > 100 | > 100 | – | – | – | – | –
13 | O=[N+]([O-])C[C@@]12O[C@]3(O)C4C5CC(C6C5C3C61)C42 (stereo partly specified) | > 100 µM | > 100 | > 100 µM | > 100 | > 100 | – | > 100 | > 100 | – | – | – | – | –
14 | CCCCCCNc1n[nH]c(=O)c2c1nnn2Cc1ccccc1 | – | > 100 | – | – | > 100 | > 100 µM | > 100 | – | – | – | – | – | –
15 | CN1CCc2c([nH]c3ccccc23)C1 | – | > 100 | > 100 µM | > 100 | > 100 | > 100 µM | > 100 | > 100 | – | – | – | – | –
16 | CC(=O)OC(OC(C)=O)c1ccc2ccc3cccc4ccc1c2c34 | 3.74 µM | 80.6 | 27.3 µM | – | 41.8 | 36.9 µM | > 100 | 68 | – | – | – | – | –
17 | Cc1ccc(-c2c(C#N)c(-c3ccc(C)cc3)n(NS(=O)(=O)c3ccccc3)c(=O)c2C#N)cc1 | > 100 µM | > 100 | > 100 µM | > 100 | > 100 | – | > 100 | – | – | – | – | – | –
18 | CC1(C)/C(=N\NC(N)=O)C2CCC1C2 (stereo unspecified) | – | > 100 | > 100 µM | > 100 | > 100 | > 100 µM | > 100 | > 100 | – | – | – | – | –
19 | O=[N+]([O-])c1ccc(CN(CCCl)OCCCl)cc1 | – | > 100 | > 100 µM | > 100 | > 100 | > 100 µM | > 100 | > 100 | – | – | – | – | –
20 | CO[C@@]12C[C@@H](C)C3=CCC(C)=C3CC1=C(C)C(=O)O2 | > 100 µM | > 100 | > 100 µM | > 100 | > 100 | – | > 100 | – | – | – | – | – | –
21 | CCOC(=O)Nc1[nH]cc(-c2ccccc2)c1C#N | > 100 µM | > 100 | > 100 µM | > 100 | > 100 | > 100 µM | > 100 | – | – | – | – | – | –
22 | CCOC(=O)NC(Nc1ccc(C)cc1)(C(F)(F)F)C(F)(F)F | > 100 µM | – | > 100 µM | > 100 | > 100 | > 100 µM | > 100 | > 100 | – | – | – | – | –
23 | CC(=O)Nc1sc(Br)cc1S(=O)(=O)c1ccc(Cl)cc1 | > 100 µM | > 100 | > 100 µM | > 100 | > 100 | > 100 µM | – | 68.5 | – | – | – | – | –
24 | CN(CCSCCN(C)C(=O)OC(C)(C)C)C(=O)OC(C)(C)C | – | > 100 | > 100 µM | > 100 | > 100 | > 100 µM | > 100 | – | – | – | – | – | –
25 | Fc1ccc2c(c1)nc1n2C(c2c(Cl)cccc2Cl)SC1 (stereo unspecified) | 35.4 µM | – | 26.2 µM | 27.6 | 25.8 | 24.5 µM | 24.4 | 38.4 | – | – | – | – | –
26 | CC(=O)Nc1ccc(N=Nc2c(O)c(S(=O)(=O)O)cc3cc(S(=O)(=O)O)ccc23)cc1 | – | > 100 | > 100 µM | > 100 | > 100 | > 100 µM | > 100 | > 100 | – | – | – | – | –
